Assay results reported in patent US20250136576A1, “Heterocyclic Compounds and Uses Thereof” (ACEA Therapeutics, Inc., priority 2021, published 2025).

Each molecule was assayed on KM12-luc cells (assay: Cell proliferation and growth inhibition assay (CCK-8) in KM12-luc). Conditions: KM12-Luc, 72 h, KM12-luc cells, treated with test compounds for 72 hrs, CCK-8 viability; read-out: NTRK IC50 in KM12-luc.
Type: cell-based
Protocol: MV-4-11 and H1975 cells were obtained from the American Type Culture Collection and KM12-luc cells were obtained from JCRB Cell Bank. All cell lines were maintained at 37° C. with 5% C02, in media supplemented with 10% fetal bovine serum and penicillin (100 units/mL) and streptomycin (100 μg/mL). MV-4-11 cells were maintained in Iscove's Modified Dubecco's Medium, H1975 cells were cultured with RPMI 1640 media, and KM12-luc cells were maintained in Dulbecco's Modification of Eagle's Medium. CCK-8 reagent was obtained from Yeasen. Cell proliferation was assessed by CCK-8 assay (Yeasen) per the manufacturer's instructions. […] Cell viability was assayed by incubating the cells with CCK-8 reagent for 1-4 hrs. Absorbance was measured at OD450 using the Beckman DTX880. The data was calculated using GraphPad Prism version 6.01. The IC50 values were fitted using a non-linear regression model with a sigmoidal dose response.

| Structure (SMILES) | IC50 [µM] |
| --- | --- |
| CCC(=O)Nc1cccc(Nc2ncc(F)c(Nc3ccc(N4CCN(C(C)=O)CC4)c(F)c3)n2)c1 [Compound 158, N-(3-((4-((4-(4-acetylpiperazin-1-yl)-3-fluorophenyl)amino)-5-fluoropyrimidin-2-yl)amino)phenyl)propionamide] | > 1 |
| CCC(=O)Nc1cccc(Nc2ncc(Cl)c(Nc3ccc(N4CCNCC4)cc3OC)n2)c1 [Compound 160, N-(3-((5-chloro-4-((2-methoxy-4-(piperazin-1-yl)phenyl)amino)pyrimidin-2-yl)amino)phenyl)propionamide] | 0.21 |
| CCC(=O)Nc1cccc(Nc2ncc(Cl)c(Nc3ccc(N4CCN(C)CC4)cc3OC)n2)c1 [Compound 161, N-(3-((5-chloro-4-((2-methoxy-4-(4-methylpiperazin-1-yl)phenyl)amino)pyrimidin-2-yl)amino)phenyl)propionamide] | 0.146 |
| CCC(=O)Nc1cccc(Nc2ncc(Cl)c(Nc3ccc(N4CCN(C(C)=O)CC4)cc3OC)n2)c1 [Compound 162, N-(3-((4-((4-(4-acetylpiperazin-1-yl)-2-methoxyphenyl)amino)-5-chloropyrimidin-2-yl)amino)phenyl)propionamide] | 0.129 |
| CCC(=O)Nc1cccc(Nc2ncc(Cl)c(Nc3ccc(C4CCCNC4)cc3OC)n2)c1 (stereo not shown) [Compound 164, N-(3-((5-chloro-4-((2-methoxy-4-(piperidin-3-yl)phenyl)amino)pyrimidin-2-yl)amino)phenyl)propionamide] | 0.0505 |
| CCC(=O)Nc1cccc(Nc2ncc(Cl)c(Nc3ccc(C4CCCN(C(C)=O)C4)cc3OC)n2)c1 (stereo not shown) [Compound 165, N-(3-((4-((4-(1-acetylpiperidin-3-yl)-2-methoxyphenyl)amino)-5-chloropyrimidin-2-yl)amino)phenyl)propionamide] | 0.171 |
| COc1cc(N2CCN(C(C)=O)CC2)ccc1Nc1nc(Nc2cccc(NC(C)=O)c2)ncc1C(F)(F)F [Compound 173, N-(3-((4-((4-(4-acetylpiperazin-1-yl)-2-methoxyphenyl)amino)-5-(trifluoromethyl)pyrimidin-2-yl)amino)phenyl)acetamide] | 0.0857 |
| CNc1cccc(Oc2nc(Nc3ccc(N4CCN(C)CC4)c(F)c3)nc3[nH]ccc23)c1 [Compound 177, N-(3-fluoro-4-(4-methylpiperazin-1-yl)phenyl)-4-(3-(methylamino)phenoxy)-7H-pyrrolo[2,3-d]pyrimidin-2-amine] | 0.132 |
| CN(C)CCN(C)c1ccc(Nc2nc(Oc3cccc(N)c3)c3cc[nH]c3n2)cc1F [Compound 180, N^4-(4-(3-aminophenoxy)-7H-pyrrolo[2,3-d]pyrimidin-2-yl)-N^1-(2-(dimethylamino)ethyl)-2-fluoro-N1-methylbenzene-1,4-diamine] | 3.06 |
| CC(=O)Nc1cccc(Oc2nc(Nc3ccc(N(C)CCN(C)C)c(F)c3)nc3[nH]ccc23)c1 [Compound 181a, N-(3-((2-((4-((2-(dimethylamino)ethyl)(methyl)amino)-3-fluorophenyl)amino)-7H-pyrrolo[2,3-d]pyrimidin-4-yl)oxy)phenyl)acetamide] | > 10 |
| CN(C)CCN(C)c1ccc(Nc2nc(Oc3cccc(N)c3)c3cc[nH]c3n2)cc1 [Compound 184, N^1-(4-(3-aminophenoxy)-7H-pyrrolo[2,3-d]pyrimidin-2-yl)-N^4-(2-(dimethylamino)ethyl)-N^4-methylbenzene-1,4-diamine] | 0.407 |
| CC(=O)Nc1cc(Nc2nc(-c3c[nH]c4ccccc34)c3cc[nH]c3n2)ccc1N(C)CCN(C)C [Compound 189, N-(5-((4-(1H-indol-3-yl)-7H-pyrrolo[2,3-d]pyrimidin-2-yl)amino)-2-((2-(dimethylamino)ethyl)(methyl)amino)phenyl)acetamide] | 0.0287 |
| CC(=O)Nc1cc(Nc2nc(-c3cn(C)c4ccccc34)c3cc[nH]c3n2)cc(F)c1N(C)CCN(C)C [Compound 190, N-(2-((2-(dimethylamino)ethyl)(methyl)amino)-3-fluoro-5-((4-(1-methyl-1H-indol-3-yl)-7H-pyrrolo[2,3-d]pyrimidin-2-yl)amino)phenyl)acetamide] | 0.0604 |
| CNc1cc(Nc2nc(-c3cn(C)c4ccccc34)c3cc[nH]c3n2)ccc1N(C)CCN(C)C [Compound 192, N^1-(2-(dimethylamino)ethyl)-N^1,N^2-dimethyl-N^4-(4-(1-methyl-1H-indol-3-yl)-7H-pyrrolo[2,3-d]pyrimidin-2-yl)benzene-1,2,4-triamine] | 0.525 |
| CN(C)CCN(C)c1ccc(Nc2nc(-c3cn(C)c4ccccc34)c3cc[nH]c3n2)cc1NCC(F)(F)F [Compound 194, N^1-(2-(dimethylamino)ethyl)-N^1-methyl-N^4-(4-(1-methyl-1H-indol-3-yl)-7H-pyrrolo[2,3-d]pyrimidin-2-yl)-N^2-(2,2,2-trifluoroethyl)benzene-1,2,4-triamine] | 0.722 |
| CCN(CCN(C)C)c1c(F)cc(Nc2nc(-c3cn(C)c4ccccc34)c3cc[nH]c3n2)cc1NC(C)=O [Compound 195a, N-(2-((2-(dimethylamino)ethyl)(ethyl)amino)-3-fluoro-5-((4-(1-methyl-1H-indol-3-yl)-7H-pyrrolo[2,3-d]pyrimidin-2-yl)amino)phenyl)acetamide] | 0.153 |
| CCN(CCN(C)C)c1c(F)cc(Nc2nc(-c3cn(C)c4ccccc34)c3ccn(C)c3n2)cc1NC(C)=O [Compound 195b, N-(2-((2-(dimethylamino)ethyl)(ethyl)amino)-3-fluoro-5-((7-methyl-4-(1-methyl-1H-indol-3-yl)-7H-pyrrolo[2,3-d]pyrimidin-2-yl)amino)phenyl)acetamide] | 0.561 |
| CCN(CCN(C)C)c1ccc(Nc2nc(-c3cn(C)c4ccccc34)c3cc[nH]c3n2)cc1NC [Compound 197, N^1-(2-(dimethylamino)ethyl)-N^1-ethyl-N^2-methyl-N^4-(4-(1-methyl-1H-indol-3-yl)-7H-pyrrolo[2,3-d]pyrimidin-2-yl)benzene-1,2,4-triamine] | 0.376 |
| CN(C)CCN(C)c1ccc(Nc2nc(-c3cn(C)c4ccccc34)c3cc[nH]c3n2)cc1N [Compound 204, N^1-(2-(dimethylamino)ethyl)-N^1-methyl-N^4-(4-(1-methyl-1H-indol-3-yl)-7H-pyrrolo[2,3-d]pyrimidin-2-yl)benzene-1,2,4-triamine] | 0.0458 |
| CN(C)CCN(C)c1ccc(Nc2nc(-c3cn(C)c4ccccc34)c3cc[nH]c3n2)cc1NS(C)(=O)=O [Compound 205c, N-(2-((2-(dimethylamino)ethyl)(methyl)amino)-5-((4-(1-methyl-1H-indol-3-yl)-7H-pyrrolo[2,3-d]pyrimidin-2-yl)amino)phenyl)methanesulfonamide] | 0.329 |
| CN(C)CCN(C)c1ccc(Nc2nc(-c3cn(C)c4ccccc34)c3cc[nH]c3n2)cc1S(C)(=O)=O [Compound 206, N^1-(2-(dimethylamino)ethyl)-N^1-methyl-N^4-(4-(1-methyl-1H-indol-3-yl)-7H-pyrrolo[2,3-d]pyrimidin-2-yl)-2-(methylsulfonyl)benzene-1,4-diamine] | 0.176 |
| CN(C)CCN(C)c1ccc(Nc2nc(-c3cn(C)c4ccccc34)c3cc[nH]c3n2)cc1N(C)C [Compound 207, N^1-(2-(dimethylamino)ethyl)-N^1,N^2,N^2-trimethyl-N^4-(4-(1-methyl-1H-indol-3-yl)-7H-pyrrolo[2,3-d]pyrimidin-2-yl)benzene-1,2,4-triamine] | 0.348 |
| CCN(CCN(C)C)c1ccc(Nc2nc(-c3cn(C)c4ccccc34)c3cc[nH]c3n2)cc1F [Compound 208, N^1-(2-(dimethylamino)ethyl)-N^1-ethyl-2-fluoro-N^4-(4-(1-methyl-1H-indol-3-yl)-7H-pyrrolo[2,3-d]pyrimidin-2-yl)benzene-1,4-diamine] | 0.381 |
| CCN(CCN(C)C)c1ccc(Nc2nc(-c3cn(C)c4ccccc34)c3cc[nH]c3n2)cc1N [Compound 211, N^1-(2-(dimethylamino)ethyl)-N^1-ethyl-N^4-(4-(1-methyl-1H-indol-3-yl)-7H-pyrrolo[2,3-d]pyrimidin-2-yl)benzene-1,2,4-triamine] | 0.0403 |
| C=CC(=O)Nc1cc(Nc2nc(-c3cn(C)c4ccccc34)c3cc[nH]c3n2)ccc1N(CC)CCN(C)C [Compound 212a, N-(2-((2-(dimethylamino)ethyl)(ethyl)amino)-5-((4-(1-methyl-1H-indol-3-yl)-7H-pyrrolo[2,3-d]pyrimidin-2-yl)amino)phenyl)acrylamide] | 0.0627 |

Same assay, conditions: KM12-Luc, 72 h, read-out: NTRK IC50 in KM12-luc

| Structure (SMILES) | IC50 [µM] |
| --- | --- |
| CC(=O)Nc1cc(Nc2nc(-c3cn(C)c4ccccc34)c3cc[nH]c3n2)ccc1N(C)CCN(C)C [Compound 205a, N-(2-((2-(dimethylamino)ethyl)(methyl)amino)-5-((4-(1-methyl-1H-indol-3-yl)-7H-pyrrolo[2,3-d]pyrimidin-2-yl)amino)phenyl)acetamide] | 0.037 |
| CCNc1cc(Nc2nc(-c3cn(C)c4ccccc34)c3cc[nH]c3n2)ccc1N(C)CCN(C)C [Compound 205b, N^1-(2-(dimethylamino)ethyl)-N^2-ethyl-N1-methyl-N^4-(4-(1-methyl-1H-indol-3-yl)-7H-pyrrolo[2,3-d]pyrimidin-2-yl)benzene-1,2,4-triamine] | 0.304 |

Same assay, conditions: KM12-luc cells, treated with test compounds for 72 hrs, CCK-8 viability; read-out: NTRK IC50 in KM12-luc

| Structure (SMILES) | IC50 [µM] |
| --- | --- |
| CC(=O)Nc1cccc(Oc2nc(Nc3ccc4c(c3)[N+](C)(C)CCN4C)nc3[nH]ccc23)c1 [Compound 181b, 7-((4-(3-acetamidophenoxy)-7H-pyrrolo[2,3-d]pyrimidin-2-yl)amino)-1,1,4-trimethyl-1,2,3,4-tetrahydroquinoxalin-1-ium] | > 10 |
